Source: US20250134902A1, “DRUG REPURPOSING FOR DELAYED TREATMENT OF ISCHEMIC STROKE” (UNIVESRITY OF NORTH TEXAS HEALTH SCIENCE CENTER, priority 2022, published 2025)
Entries after “also recorded” stand apart in the source; their conditions may differ.

Legend:
[1] = test system: rat model of focal cerebral ischemia (tMCAO); assay: Neurological function after transient middle cerebral artery occlusion (Bederson, NDS, EBST); assay type: in vivo; details: for Neurological Deficit Score (NDS), Dunn's test: 135 mg/kg/d p.o.
Procedure: Evaluating the effect of Sigma receptor agonists in a rat model of focal cerebral ischemia. Rats were anesthetized with 5% isoflurane in oxygen and maintained at ˜2% through a nosecone. Core temperature was maintained with an infrared heating pad controlled by a rectal probe. Transient middle cerebral artery occlusion (tMCAO) was performed as previously described (Oppong-Gyebi et al., 2022). Briefly, a midline incision was made from the neck to the sternum. The left common carotid artery and bifurcation was mobilized, and a silicon-coated suture (Doccol, Sharon MA) was inserted through the external carotid artery into the internal carotid artery to reach the origin of the MCA at the base of the brain. The incision was closed, and rats were allowed to awaken so that successful occlusion could be assessed. Rats not displaying hemiparesis immediately post-surgery were excluded from the study. After 85-90 minutes occlusion, rats were anesthetized, and the suture was withdrawn to allow reperfusion. Rats were injected subcutaneously with 5 ml saline bilaterally to provide hydration during recovery. On the day following tMCAO, rats were assessed for persistent signs of stroke.
Only rats displaying hemiparesis immediately post-surgery were included in the study. Rats with a Bederson score of 0 or <50% contralateral bias on the elevated body swing test (EBST) (Borlongan and Sanberg, 1995) on Day 1 after tMCAO were excluded from the study. Animals that became moribund or died within 24 hours of tMCAO were excluded from the study.
Two days before tMCAO rats were trained to lick 5% sucrose from a 1 ml syringe. After behavioral assessment on Day 1 after tMCAO, rats were randomly assigned to 4 groups in a blinded fashion. Groups included sucrose Vehicle, or 45, 68 or 135 mg/kg oxeladin. Oxeladin was prepared in 5% sucrose and provided to rats from the end of a 1 ml syringe. Starting 48 hours after stroke, rats were administered treatments daily from day 3 to day 14. On days 3-14 rats were injected i.p. with 50 mg/kg bromodeoxyuridine (BrdU; Fisher Bioreagents). At the conclusion of the study, rats were euthanized under deep isoflurane anesthesia. Rats were transcardially perfused with cold saline and either decapitated for brain collection and flash freezing of brain tissue or transcardially perfused with 4% formaldehyde for immunohistochemical studies.
On days 1, 3, 7, and 14 after tMCAO, rats underwent a series of behavioral tests by a treatment blinded observer. All tests were performed in a room dimly lit with red light. Rats were assessed by the Bederson test (Bederson et al., 1986), and an 11-point Neurological Deficit test as previously described (Oppong-Gyebi et al., 2022). The elevated body swing test (EBST) was performed in an open field with 30 seconds between each of 20 lifts by the base of the tail (Borlongan and Sanberg, 1995). The EBST was scored as percent of nose swing to the contralateral side to the tMCAO.
The observer scored the rats using the Bederson test, which evaluates global neurological function and grades rodents on a scale of 0-5. Grade 0 (no defects) is assigned if animals extend both forelimbs toward the floor when suspended above the floor. Grade 1 (mild defects) is given when animals show forelimb flexion without any other abnormality. Grade 2 (modest defects) is given when animals display forelimb flexion and decreased resistance to lateral push toward the paretic side. Animals further showing circling behavior are scored Grade 3 (severe defects).
The observer also scored the rats using the Elevated Body Swing Test (EBST) in which rats lifted by the tail and held vertically swing their heads to the left or to the right. Whereas healthy animals on a group level are likely to swing approximately 50% to either side, animals with a unilateral cerebral lesion, e.g. ischemic stroke, should present with a dominant/biased swing direction.

[2] = biological target: T1, human Sigma-2 receptor (S2R) (Homo sapiens, UniProt Q5BJF2); assay: Radioligand competition binding at Sigma-2 receptor ([3H]-DTG, untransfected MCF-7); details: displacement of 2.5 nM [3H]DTG, untransfected MCF-7 cells; average of 2-3 experiments ± SEM; read-out: S2R affinity (Ki)
T1 construct: these cells express the endogenous S2R; endogenous in cells; host or cells: untransfected human MCF-7 cells
T1 sequence (Q5BJF2 whole entry): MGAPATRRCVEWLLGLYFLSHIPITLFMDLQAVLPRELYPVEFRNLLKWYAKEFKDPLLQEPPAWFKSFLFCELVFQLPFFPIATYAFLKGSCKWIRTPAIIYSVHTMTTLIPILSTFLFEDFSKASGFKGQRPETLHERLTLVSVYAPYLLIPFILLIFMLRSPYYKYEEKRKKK
Procedure: Ki values were calculated from IC50 values using the Cheng-Prusoff equation.

[3] = biological target: T2, human Sigma-1 receptor (S1R) (Homo sapiens, UniProt Q99720); assay: Radioligand competition binding at Sigma-1 receptor ([3H]-(+)-pentazocine, MCF-7-hS1R)
T2 construct: expressed in transfected cells
T2 sequence (Q99720 whole entry): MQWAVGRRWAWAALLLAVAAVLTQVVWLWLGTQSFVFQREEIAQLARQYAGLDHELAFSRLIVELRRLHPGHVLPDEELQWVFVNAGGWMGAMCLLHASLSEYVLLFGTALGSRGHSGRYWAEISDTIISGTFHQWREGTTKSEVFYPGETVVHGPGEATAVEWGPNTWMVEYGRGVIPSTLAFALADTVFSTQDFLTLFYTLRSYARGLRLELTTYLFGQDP
Procedure: Measuring receptor density with radioligand binding.
Measuring the ligand affinities at SIR and S2R receptors by radioligand binding. […] Binding conditions were the same as described previously for the S1R (Schetz, et al., 2007): binding buffer (Tris 50 mM, pH=8.1 at 37° C.), ice-cold wash buffer (Tris 10 mM, pH=8.1 at 0-2° C.), and incubation time (3 hrs at 37° C.) with shaking. Non-specific binding for the S1R and S2R was determined in the presence of 5 μM BD1063 and […] haloperidol, respectively. Following incubation, receptors were collected via rapid filtration through GF/C filters (Brandel, Gaithersburg, MD) followed by washing three times with 3 mL of ice-cold wash buffer. Dried filters were transferred to vials filled with 3.5 ml of scintillation fluid, and the radioactivity was quantified on a liquid scintillation analyzer (TRICARB® 2800TR) from Perkin Elmer (Saint Louis, MO). Mean values from duplicate or triplicate determinations are reported along with their associated standard error of the mean (SEM). Ki values were calculated from IC50 values using the Cheng-Prusoff equation. The concentration of membrane protein was determined using a PIERCE® BCA Protein Assay kit (Life Technologies, Grand Island, NY) following the manufacturer's protocol.
Referring to FIG. 1, the selectivity of potential S1R ligands over S2R was empirically evaluated. Human MCF-7 cells were used as the source of the S2R because these cells express the endogenous S2R (Vilner, John, et al., 1995; Wu & Bowen, 2008) but lack detectable levels of the S1R, allowing unambiguous detection of S2R activity in untransfected cells (Schetz, et al., 2007). MCF-7 cells stably expressing the cloned human S1R were used as the source of S1R.

[4] = source not stated; cited from earlier work
[5] = 68 mg/kg/d p.o. starting 48 hours after tMCAO, days 7 and 14

For `CCN(CC)CCOCCOC(=O)C(CC)(CC)c1ccccc1` [Oxeladin], the “Bederson score vs Vehicle” value [1, 5] was “significantly improved”, the “Elevated Body Swing Test (EBST) vs Vehicle” value [1, 5] was “significantly improved” and the “Bederson score vs Vehicle” value ([1]; 135 mg/kg/d p.o. starting 48 hours after tMCAO, days 3, 7 and 14) was “significant improvements; also recorded: significantly improved”. The “Neurological Deficit Score (NDS) vs Vehicle” value ([1]; 135 mg/kg/d p.o. starting 48 hours after tMCAO, days 3 and 7) was “significantly improved”, the “Elevated Body Swing Test (EBST) vs Vehicle” value ([1]; 135 mg/kg/d p.o. starting 48 hours after tMCAO, days 7 and 14) was “not 135 mg/kg showed improvement” and the “Neurological Deficit Score (NDS), Dunn's test” value ([1]; day 3 (P=0.072)) was “trend for improvement”. The “Neurological Deficit Score (NDS), Dunn's test” value ([1]; day 7 (P=0.028)) was “significant improvements”, the “functional recovery after tMCAO” value ([1]; overall conclusion, p.o. dosing) was “improves functional recovery” and the Ki [2] was 0.148 ± 0.064 µM. For the same compound, the “selective for S1R over S2R” value [3] was 9 fold, the Ki ([3]; displacement of 0.5 nM [3H]-(+)-pentazocine, MCF-7 cells expressing human S1R, average of 2-3 experiments ± SEM, read-out: S1R affinity (Ki)) was 0.025 ± 0.0043 µM and the “S2R/S1R ratio (Ki S2R/Ki S1R)” value ([3]; selectivity for S1R over S2R) was 6. The LogP [4] was 4.43.
